Data: patent US6117975A, “Melanocortin receptor polypeptides MC-3, MC-4, and MC-5” (The Regents of the University of Michigan, priority 1996, dated 2000)
No end group written: not given here.

Tests used:
MC4 receptor [1] = molecular target: T1, MC4 receptor (Homo sapiens, UniProt P32245); test: intracellular cAMP content in Hepa cells transfected with the MC4 receptor; format: cell-based
T1 construct: expressed in transfected cells; host or cells: COS-1 (transient, lipofection); Hepa rat hepatoma; CMVneo vector

[2] = test system: chimeric receptor cH2R/MC3R-3i; test: [3H] IP production in Hepa cells transfected with chimeric cH2R/hMC3R-3i; format: cell-based; details: pretreatment, chimeric cH2R/MC3R-3i
Excerpt: Chimeric Receptor. […] The chimeric receptor (cH2R/MC3R-3i) was constructed by cassette mutation at the junction of the fifth and sixth transmembrane domains of cH2R. Six PCR primers were used to generate three DNA fragments which were subsequently ligated together. The three PCR-generated fragments consisted of 1) the 5' coding region of the cH2R receptor beginning just prior to the ATG codon and ending with the 3' end of the fifth transmembrane domain; 2) the portion of the MC3 receptor gene encoding its third intracytoplasmic loop; and 3) the 3' coding region of the cH2R beginning with that segment encoding the 5' end of the sixth transmembrane domain and ending slightly past the termination codon. The DNA fragments were cut with appropriate restriction enzymes at pre-engineered restriction sites designed so that the three fragments could be assembled together in only the correct alignment. Restriction sites were also designed to facilitate subcloning the chimeric receptor DNA into CMVneo and the sequencing vector M13. The nucleotide sequence of the CMVneo cH2R/MC3R-3i construct was confirmed prior to expression in Hepa cells.
Inositol Phosphate (IP) Assays.

MC3 receptor [3] = molecular target: T2, MC3 receptor (Homo sapiens, UniProt P41968); test: [3H] inositol phosphate (IP) production in Hepa cells transfected with the MC3 receptor
Description: Receptor Gene Expression. The coding region of the MC3 receptor gene was subcloned into the eukaryotic expression vector CMVneo using a polymerase chain reaction (PCR) strategy as previously described. […] The insert was subsequently checked by dideoxynucleotide sequencing to insure that no errors were induced by the PCR. A rat hepatoma cell line (Hepa) which lacks endogenous melanocortin receptors was transfected with the CMVneo/MC3 receptor construct using the calcium phosphate co-precipitation method. […] Cells were selected for resistance to the neomycin analogue Geneticin (Life Sciences) and clones were subsequently chosen for high levels of receptor mRNA expression by Northern blot analysis.
Inositol Phosphate (IP) Assays. Measurement of inositol phospholipid turnover in Hepa cells was performed according to a modification of previously published methods as follows. […] Cells grown to semi-confluence in multiwell plates were prelabeled with [2-^3 H] myo-inositol in DMEM for 24 hr, incubated in EBSS for 30 min, then incubated for another 15 min in EBSS with 10 mM LiCl. The final incubation was in media with experimental ligand added for up to three min after which ice cold 100% methanol was added and the cells were scraped and extracted with 2 ml chloroform, 10 μl HCl (13 N), and 200 μl of 100 mM EDTA in a 50 ml polypropylene tube. The mixture was then vortexed and centrifuged at 1,900 X g. The supernatant was removed and its pH was adjusted to 7.0 by adding 1 N NaOH. Waters Accel plus QMA SEP-PAK anion exchange cartridges (Waters Chromatography, Millipore Corporation, Milford, Mass.) were used to separate inositol phosphates under differing concentrations of formatelformic acid. The cartridges were pretreated by washing with 10 ml of a solution of 1 M ammonium formate in 0.1 M formic acid followed by 20 ml of distilled water. The samples were applied with a flow rate of approximately 10 ml/min using a 10 ml syringe. IPs were then eluted using 10 mM increments of ammonium formate in a stepwise fashion. Inositol monophosphate was eluted with 10 mM formic acid/100 mM ammonium formate/5 mM disodium tetraborate, inositol bisphosphate was eluted with 20 mM formic acid/200 mM ammonium formate/5 mM disodium tetraborate, and IP3 was eluted with 30 mM formic acid/300 mM ammonium formate/5 mM disodium tetraborate. […] Eluted radioactivity from the pooled fractions (total inositol phosphates) were measured by liquid-scintillation spectrometry (Beckman model LS7800 instrument).

[4] = test system: endogenous vasopressin receptors; test: intracellular Ca++ concentration in Hepa cells, endogenous vasopressin receptors; format: cell-based, rat
Description: Measurement of Intracellular Ca++ Concentration ([Ca++]i). For these experiments, Hepa cells were detached by incubation in Ca^++ -free EBSS with 2.0 mM EDTA, loaded with 1 μM fura-2/AM (Molecular Probes, Eugene, Oreg.) for 20 min at 37° C. in EBSS containing 0.1% BSA and 25 mM HEPES, washed by centrifugation at 50 X g, and resuspended and maintained in EBSS buffer at room temperature until the time of experimentation. [Ca^++ ]i measurements of cells suspended in a quartz cuvette were obtained using a dual-wavelength modular fluorometer (Spex-Fluorolog 2, Spex Industries, Edison, N.J.) according to previously described methods. DelValle, J. et al., Am. J. Physiol. 262:G420-426 (1992).

mMC5 receptor = molecular target: T3, mMC5 receptor (Mus musculus, UniProt P41149); test: cAMP generation in L-cells transfected with the mMC5 receptor; format: cell-based
T3 construct: expressed in transfected cells
Excerpt: (§1) Receptor Expression. […] The sequences were subsequently checked by nucleotide sequencing to insure that no sequence errors were induced by PCR. L-cells (a mouse fibroblast-like cell line) were transfected using a calcium phosphate co-precipitation method as described in Chen, C. A. et al. Bio/Techniques 6:632-638 (1988). Permanently transfected L-cells were selected by resistance to the neomysin analogue G418, and receptor mRNA expression was checked by Northern blot analysis. […] COS-1 cells which were transiently transfected with the CMVneo/MC4R gene construct by lipofection as described in Feigner, P. L. et al., PNAS (USA) 84:7413-7417 using the Lipofectin Reagent (Life Technologies Inc.) were split into 12-well plates after 24 hr and assayed 36 hr post-transfection.
(§2) cAMP Assays. For these assays a cAMP assay kit (TRK 432, Amersham Corp.) was employed. […] The cells were maintained in Dulbecco's modified Eagle's medium (GIBCO) containing 4.5 g/100 ml glucose, 10% fetal calf serum, 100 units/ml penicillin and streptomycin, 1 mM sodium pyruvate, and 1 mg/ml Geneticin. […] An aliquot (0.5 ml) of Earle's balanced salt solution was placed into each well along with 5 μl of 2×10^-2 M isobutylmethylxanthine. Varying concentrations of agonist were added, and the cells were incubated to 30 min at 37° C. Ice-cold 30% trichloracetic acid (500 μl/well) was added to stop the reaction and precipitate cellular protein. The cells were scraped and transferred to 16×150-mm glass tubes, then placed on ice for 30 min. The precipitate was then centrifuged for 10 min at 1,900×g, and the supernatant was ether extracted, lyophilized, and resuspended in 50 mM Tris, 2 mM EDTA (pH 7.5). cAMP content was then measured by a competitive binding assay according to the assay instructions.

MC1 receptor [5] = molecular target: T4, MC1 receptor (Homo sapiens, UniProt Q01726, R163Q/S90T); test: cAMP generation in L-cells transfected with the MC1 receptor; format: cell-based
T4 construct: expressed in transfected cells
T4 sequence (Q01726 1-317 S90T/R163Q): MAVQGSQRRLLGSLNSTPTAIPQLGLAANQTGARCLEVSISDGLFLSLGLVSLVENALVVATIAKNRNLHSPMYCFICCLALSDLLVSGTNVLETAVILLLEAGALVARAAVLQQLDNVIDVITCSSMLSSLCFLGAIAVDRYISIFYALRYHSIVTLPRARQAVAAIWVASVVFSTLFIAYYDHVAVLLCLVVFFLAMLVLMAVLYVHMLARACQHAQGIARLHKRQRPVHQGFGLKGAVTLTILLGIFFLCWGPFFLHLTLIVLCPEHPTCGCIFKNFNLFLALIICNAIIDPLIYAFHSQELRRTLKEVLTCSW
Excerpt: as §1, §2

MC4 receptor [6] = molecular target: T1, MC4 receptor; test: cAMP generation in COS-1 cells transiently transfected with the MC4 receptor gene; format: cell-based
Excerpt: as §1
cAMP Assays. For these assays a cAMP assay kit (TRK 432, Amersham Corp.) was employed. […] The cells were maintained in Dulbecco's modified Eagle's medium (GIBCO) containing 4.5 g/100 ml glucose, 10% fetal calf serum, 100 units/ml penicillin and streptomycin, 1 mM sodium pyruvate, and 1 mg/ml Geneticin. […] The precipitate was then centrifuged for 10 min at 1,900×g, and the supernatant was ether extracted, lyophilized, and resuspended in 50 mM Tris, 2 mM EDTA (pH 7.5). cAMP content was then measured by a competitive binding assay according to the assay instructions.

MC4 receptor [7] = molecular target: T1, MC4 receptor; test: cAMP generation in L-cells transfected with the MC4 receptor gene; format: cell-based
Excerpt: as §1, §2

MC1 receptor [8] = details: Mountjoy et al. 1992; cited from earlier work
MC1 receptor [9] = molecular target: T5, MC1 receptor (Homo sapiens, UniProt Q01726); details: Chhajlani et al. 1992; cited from earlier work
T5 construct: host or cells: Cos-7 cells transfected with α-MSH receptor cDNA

MC3 receptor [10] = molecular target: T2, MC3 receptor; test: cAMP generation in L-cells transfected with the MC3 receptor; format: cell-based; design: these were utilized to obtain full-length genomic clones by screening a genomic library; expressed in transfected cells; CMVneo vector
Excerpt: as §1, §2

MC3 receptor [11] = molecular target: T2, MC3 receptor; test: intracellular cAMP content in Hepa cells transfected with the MC3 receptor; format: cell-based; design: these were utilized to obtain full-length genomic clones by screening a genomic library; expressed in transfected cells; CMVneo vector
Description: Receptor Expression. […] The sequences were subsequently checked by nucleotide sequencing to insure that no sequence errors were induced by PCR. […] A rat hepatoma cell line (Hepa) which lacks endogenous melanocortin receptors was also transfected with the CMVneo/MC3R and CMVneo/MC4R constructs.
cAMP Assays. For these assays a cAMP assay kit (TRK 432, Amersham Corp.) was employed. Cells transfected with the receptors were grown to confluence in 12-well (2.4×1.7 cm) tissue culture plates. The cells were maintained in Dulbecco's modified Eagle's medium (GIBCO) containing 4.5 g/100 ml glucose, 10% fetal calf serum, 100 units/ml penicillin and streptomycin, 1 mM sodium pyruvate, and 1 mg/ml Geneticin. For assays, this medium was removed and cells were washed twice with Earle's balanced salt solution containing 10 mM Hepes (pH 7.4), 1 mM glutamine, 26.5 mM sodium bicarbonate, and 100 mg/ml bovine serum albumin. An aliquot (0.5 ml) of Earle's balanced salt solution was placed into each well along with 5 μl of 2×10^-2 M isobutylmethylxanthine. Varying concentrations of agonist were added, and the cells were incubated to 30 min at 37° C. Ice-cold 30% trichloracetic acid (500 μl/well) was added to stop the reaction and precipitate cellular protein. The cells were scraped and transferred to 16×150-mm glass tubes, then placed on ice for 30 min. The precipitate was then centrifuged for 10 min at 1,900×g, and the supernatant was ether extracted, lyophilized, and resuspended in 50 mM Tris, 2 mM EDTA (pH 7.5). cAMP content was then measured by a competitive binding assay according to the assay instructions.
Receptor Gene Expression. The coding region of the MC3 receptor gene was subcloned into the eukaryotic expression vector CMVneo using a polymerase chain reaction (PCR) strategy as previously described. […] The insert was subsequently checked by dideoxynucleotide sequencing to insure that no errors were induced by the PCR. […]

[12] = read-out: ED50, cAMP generation

T1 sequence (P32245 whole entry): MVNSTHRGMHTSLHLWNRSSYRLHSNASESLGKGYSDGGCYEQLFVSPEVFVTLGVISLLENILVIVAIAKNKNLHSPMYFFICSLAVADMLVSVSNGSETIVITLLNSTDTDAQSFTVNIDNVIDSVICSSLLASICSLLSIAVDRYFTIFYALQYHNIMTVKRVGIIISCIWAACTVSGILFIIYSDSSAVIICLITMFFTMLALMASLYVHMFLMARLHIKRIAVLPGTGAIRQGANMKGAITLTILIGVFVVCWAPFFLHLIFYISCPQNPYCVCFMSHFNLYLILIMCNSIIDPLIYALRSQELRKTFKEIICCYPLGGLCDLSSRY
T2 sequence (P41968 whole entry): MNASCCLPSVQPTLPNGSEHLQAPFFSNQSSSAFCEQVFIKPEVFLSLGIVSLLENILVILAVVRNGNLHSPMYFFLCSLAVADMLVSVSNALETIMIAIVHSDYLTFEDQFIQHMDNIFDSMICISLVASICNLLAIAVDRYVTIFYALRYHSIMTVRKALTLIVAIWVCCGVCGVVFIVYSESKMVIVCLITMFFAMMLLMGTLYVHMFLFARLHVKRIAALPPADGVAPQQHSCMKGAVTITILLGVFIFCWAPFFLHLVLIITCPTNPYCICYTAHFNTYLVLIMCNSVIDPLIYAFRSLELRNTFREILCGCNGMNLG
T3 sequence (P41149 whole entry): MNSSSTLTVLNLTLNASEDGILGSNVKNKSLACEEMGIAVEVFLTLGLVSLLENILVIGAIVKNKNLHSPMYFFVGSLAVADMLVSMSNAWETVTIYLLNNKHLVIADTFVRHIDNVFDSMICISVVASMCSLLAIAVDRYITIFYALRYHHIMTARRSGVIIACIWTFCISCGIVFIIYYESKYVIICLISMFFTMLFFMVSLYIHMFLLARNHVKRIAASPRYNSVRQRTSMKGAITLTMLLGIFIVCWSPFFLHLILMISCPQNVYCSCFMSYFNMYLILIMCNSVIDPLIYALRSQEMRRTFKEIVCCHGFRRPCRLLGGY
T5 sequence (Q01726 whole entry): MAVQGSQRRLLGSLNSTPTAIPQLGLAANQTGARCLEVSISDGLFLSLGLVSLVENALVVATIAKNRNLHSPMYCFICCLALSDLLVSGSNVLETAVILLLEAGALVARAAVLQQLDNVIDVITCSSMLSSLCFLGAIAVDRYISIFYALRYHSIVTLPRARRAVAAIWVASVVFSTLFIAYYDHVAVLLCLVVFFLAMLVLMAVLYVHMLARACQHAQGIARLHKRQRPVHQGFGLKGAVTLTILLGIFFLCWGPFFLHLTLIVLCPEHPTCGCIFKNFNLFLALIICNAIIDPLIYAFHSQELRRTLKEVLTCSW

CSCC[C@H](N)C(=O)N[C@@H](CCC(=O)O)C(=O)N[C@@H](Cc1c[nH]cn1)C(=O)N[C@@H](Cc1ccccc1)C(=O)N[C@@H](CCCNC(=N)N)C(=O)N[C@@H](Cc1c[nH]c2ccccc12)C(=O)NCC(=O)O [ACTH(4-10)]
Emax (MC4 receptor [1]; read-out: efficacy, % of the maximal response of ACTH (1-13)): 30%

O=S(=O)(NCCNCC=Cc1ccc(Br)cc1)c1cccc2cnccc12 [H-89, N-[2-(p-bromocinnamyl-amino)ethyl]-5-isoquinolinesulfonamide]
effect on inhibitory phase of histamine [3H]-IP dose response curve (in words) [2]: abolished by pretreatment with H-89 | effect on α-MSH stimulated [3H]-IP production (in words) (MC3 receptor [3]): restoration of the higher levels of [^3 H]-IP products observed with 10^-11 M α-MSH | concentration of maximum effect on α-MSH stimulated [3H]-IP production (MC3 receptor [3]; pretreatment, 10^-8 M α-MSH, Hepa cells, MC3 receptor): 1 µM

CSCC[C@H](NC(=O)[C@@H](NC(=O)[C@@H](N)Cc1ccc(O)cc1)C(C)C)C(=O)NCC(=O)N[C@@H](Cc1c[nH]cn1)C(=O)N[C@@H](Cc1ccccc1)C(=O)N[C@@H](CCCNC(=N)N)C(=O)N[C@@H](Cc1c[nH]c2ccccc12)C(=O)N[C@@H](CC(=O)O)C(=O)N[C@@H](CCCNC(=N)N)C(=O)N1CCC[C@H]1C(=O)NCC(=O)O [Pro^11 y-MSH]
efficacy, intracellular cAMP (MC4 receptor [1]; α-MSH as reference for maximum response): 75% | EC50 (MC4 receptor [1]; α-MSH dose response curve as reference for maximum response): 100 nM

CCCC(=O)Nc1ncnc2c1ncn2[C@@H]1O[C@@H]2COP(=O)(O)O[C@H]2[C@H]1OC(=O)CCC [dbcAMP, dibutryl cAMP]
effect on α-MSH stimulated [3H]-IP production (in words) (MC3 receptor [3]): dose dependently inhibited the level of [^3 H]-IP turnover in response to α-MSH

NC(=O)CC[C@@H]1NC(=O)[C@H](Cc2ccccc2)NC(=O)[C@H](Cc2ccc(O)cc2)NC(=O)[C@@H](N)CSSC[C@@H](C(=O)N2CCC[C@H]2C(=O)N[C@@H](CCCN=C(N)N)C(=O)NCC(N)=O)NC(=O)[C@H](CC(N)=O)NC1=O [vasopressin]
effect on [Ca++]i (in words) [4]: increase in [Ca^++ ]i upon stimulation of their endogenous vasopressin receptors

Rat ACTH: rat ACTH, which differs from human ACTH in two amino acids (SYSMEHFRWGKPVGKKRRPVKVYPNVAENESAEAFPLEF; Corticotropin; UniProt P01194 124-162, looked up)
cAMP response (in words) (mMC5 receptor): produced the same results

SYSMEHFRWGKPVGKKRRPVKVYPNGAEDESAEAFPLEF [ACTH, ACTH(1-39)] [listing 1 of 2 here]
cAMP response (in words) (MC1 receptor [5]): equal potency and efficacy | cAMP response (in words) (MC4 receptor [6]): marked increase in intracellular cAMP content | cAMP response (in words) (MC4 receptor [7]): equal potency and efficacy | cAMP production via the MC1 receptor (in words) (MC1 receptor [8]): less potent and less efficacious than α-MSH | affinity in displacing 125I-labeled [Nle4,D-Phe7]α-MSH (in words) (MC1 receptor [9]): equal affinities | Emax (MC3 receptor [3]; HepA, read-out: maximal stimulation of [3H]-IP production, % of basal unstimulated value): 155% | inositol phospholipid turnover dose-response (in words) (MC3 receptor [3]; Hepa cells, MC3 receptor): At low doses (below 10^-11 M) there was a clear stimulatory effect, however, at higher doses, there was a dose dependent inhibitory effect | cAMP response (in words) (MC3 receptor [10]): equal potency and efficacy | cAMP production relative to control unstimulated levels at maximal doses (MC3 receptor [11]): exceeded 15 times the control | cAMP response (in words) (MC3 receptor [11]): stimulated cAMP production

SYSMEHFRWGKPVGKKRRPVKVYPNGAEDESAEAFPLEF [ACTH, ACTH(1-39)] [listing 2 of 2 here]
EC50 (MC1 receptor [5]; [12]): ~1 nM | EC50 (MC4 receptor [7]; read-out: half-maximal effect (EC50), intracellular cAMP): 1 nM | EC50 (MC3 receptor [10]; [12]): ~1 nM

Thr^1, Pro^11 y-MSH
cAMP response (in words) (MC4 receptor [1]): diminished both the potency and efficacy

[Met]enkephalin
cAMP response (in words) (MC1 receptor [5]): neither the MC1 receptor nor the MC3 receptor responded | cAMP response (in words) (MC4 receptor [7]): did not respond | cAMP response (in words) (mMC5 receptor): Neither were the other products of pro-opiomelanocortin processing, β-endorphin, met-enkephlin, or porcine β-lipotropin active | cAMP response (in words) (MC3 receptor [10]): neither the MC1 receptor nor the MC3 receptor responded

[des-acetyl] α-MSH
cAMP response (in words) (MC1 receptor [5]): identical to those observed for ACTH and α-MSH | cAMP response (in words) (MC4 receptor [1]): no difference was observed | cAMP response (in words) (MC3 receptor [10]): identical to those observed for ACTH and α-MSH | cAMP response (in words) (MC3 receptor [11]): no difference was observed

β-endorphin
cAMP response (in words) (MC1 receptor [5]): neither the MC1 receptor nor the MC3 receptor responded | cAMP response (in words) (MC4 receptor [7]): did not respond | cAMP response (in words) (mMC5 receptor): Neither were the other products of pro-opiomelanocortin processing, β-endorphin, met-enkephlin, or porcine β-lipotropin active | cAMP response (in words) (MC3 receptor [10]): neither the MC1 receptor nor the MC3 receptor responded

B1: β-lipotropin (peptide, UniProt P01192 177-267, looked up, listed as Lipotropin beta)
Lipotropin beta: ELAGAPPEPARDPEAPAEGAAARAELEYGLVAEAEAAEKKDEGPYKMEHFRWGSPPKDKRYGGFMTSEKSQTPLVTLFKNAIVKNAHKKGQ
notes: product of pro-opiomelanocortin processing
cAMP response (in words) (MC4 receptor [7]): small increase in cAMP | cAMP response (in words) (mMC5 receptor): Neither were the other products of pro-opiomelanocortin processing, β-endorphin, met-enkephlin, or porcine β-lipotropin active
